# Tests used:
# [1] = system: liver hepatocellular carcinoma cell line SNU-449; experiment: MTS analysis, growth inhibition (GI50); assay type: cell-based
# [2] = system: liver hepatocellular carcinoma cell line Mahlavu; experiment: MTS analysis, growth inhibition (GI50); assay type: cell-based; conditions: read-out: GI50, Mahlavu liver hepatocellular carcinoma cell line
# [3] = system: SNU-449 liver hepatocellular carcinoma cell line; experiment: Western blot of apoptosis markers (cleaved caspase 8, cleaved PARP); assay type: cell-based; conditions: 0.3 μM, 0, 24, 48 and 72 hours
# Method: SNU-449 liver hepatocellular carcinoma cell line was treated by 0.3 μM isothiocyanate structural modified compounds P1130 and PCH1152, and natural isothiocyanate compound PEITC, and the control group was treated by DSMO. After extracting the proteins in the cells at different time points, such as 0, 24, 48 and 72 hours, analysis and comparison were performed by using western blot. […] The results represent that the two structural modified compounds described above effectively promoted the apoptosis of the liver hepatocellular carcinoma cells (FIG. 1).
# [4] = system: Mahlavu liver hepatocellular carcinoma cell line; experiment: Expression of ABCC2, Twist and Mcl-1 after treatment; assay type: cell-based; conditions: 2.5 μM, 64 hours
# From the text: (§1) The process of trans-differentiating epithelial cells into motile mesenchymal cells is called epithelial-mesenchymal transition (EMT). EMT is indispensable in development, wound healing and stem cell behavior, and may induce fibrosis and carcinogenesis pathologically. In addition, EMT plays an important role in liver fibrosis, liver cirrhosis and liver hepatocellular carcinoma. […] Moreover, EMT may increase the anti-apoptosis effect, which will result in the development of drug resistance in cancer treatment, and induce the development of stemness of the cancer cells, as well as increase the number of cancer stem cells. The cancer stem cell is one of the important factors in the progression, recurrence, metastasis and drug resistance of the cancer. There is an evidence that in the samples of the liver hepatocellular carcinoma patients with poor prognosis, the overexpressions of Twist and Snail were observed. […] The results above represent that isothiocyanate structural modified compound of the present disclosure may prevent liver carcinogenesis and the growth, invasion, metastasis, progression and recurrence of liver hepatocellular carcinoma via inhibiting epithelial-mesenchymal transition, anti-apoptosis and/or inhibiting drug resistance.
# [5] = system: SNU-449 liver hepatocellular carcinoma cell line; experiment: as above; assay type: cell-based; conditions: 2.5 μM, 64 hours
# From the text: as §1
# [6] = system: liver hepatocellular carcinoma cell line SNU-449; experiment: MTS assay cell growth, selectivity test; assay type: cell-based
# [7] = system: human normal liver cell line THLE-2; experiment: MTS assay cell growth, selectivity test; assay type: cell-based
# From the text: Preferable small molecule anticancer drugs must have higher selectivity to cancer cells, thereby reducing the toxicity and side effects in the normal cells and the dosage being taken. The selectivity of isothiocyanate structural modified compound of the present disclosure to liver hepatocellular carcinoma cells was examined by using human normal liver cell line THLE-2 and liver hepatocellular carcinoma cell line SNU-449. After treating liver hepatocellular carcinoma cell line and normal liver cell line by isothiocyanate structural modified compounds P1130 or PCH1152, the cell growth was evaluated by MTS assay.
# [8] = system: SNU-449 liver hepatocellular carcinoma cell line; experiment: Western blot, apoptosis and ABCC2/Mcl-1/Twist expression; assay type: cell-based; conditions: low concentration
# [9] = system: human normal liver cell line THLE-2; experiment: as above; assay type: cell-based; conditions: low concentration
# [10] = system: Mahlavu liver hepatocellular carcinoma cell line subcutaneous tumor; experiment: Mouse xenograft model, oral PCH1152; assay type: in vivo, nude mice; conditions: 0.6 mg/mouse/day orally
# Method: Seven days after subcutaneously injecting 1×10^6 Mahlavu liver hepatocellular carcinoma cell line into nude mice, PCH1152 (0.6 mg/mouse/day) began to be orally administered to the mice. After continuously administrating the drug orally for 45 days, the mice were sacrificed and their subcutaneous tumor were taken and analyzed.
# [11] = system: Antimycin A-induced ROS in LX-2 cells; experiment: Removal of Antimycin A-induced ROS, DHE fluorescence; assay type: cell-based; conditions: 2.5 μM PCH1152, 24 hours
# From the text: ROS was examined by DHE fluorescence, and the difference between each group was compared by Tukey's Multiple Comparison Test.
# [12] = system: Hepatitis B virus-induced ROS in Huh-7 cells; experiment: Removal of HBV-induced ROS, DHE fluorescence; assay type: cell-based, human; conditions: Huh-7 transfected with pGEM C12, 5 μM PCH1152, 10 μM NAC
# Method: To examine the effect of PCH1152, NAC or the combination thereof on removing HBV-induced ROS, the Huh-7 cells were remained untreated, or treated with 5 μM PCH1152, 10 μM NAC or 5 μM PCH 1152 plus 10 μM NAC. The ROS was examined by DHE fluorescence, and the difference between each group was compared by Tukey's Multiple Comparison Test.
# [13] = system: liver tumor in Hepatitis B virus (HBV) transgenic mouse; assay type: in vivo
# Method: To examine the incidence rate of mouse liver tumor under long-term PCH1152 administration, PCH1152 was added into the drinking water of the mice when the mice were three-month-old, and the drinking water was replaced every 7 to 14 days. The termination of the experiment was set at 19 months, and the blood of the mice started to be collected every 2 to 3 months when the mice were 9-month-old, and the ALT values of the serum were measured. When the ALT of the serum were higher than 150 U/L twice in a row, the mice were sacrificed and the developments of the liver tumors thereof were observed.
# [14] = assay type: physicochemical; conditions: after 16 days
# [15] = system: hepatic lipid accumulation and fibrosis in HBV transgenic mouse liver; experiment: Oil Red and Sirius Red staining of liver tissue; assay type: in vivo; conditions: treated mice without liver hepatocellular carcinoma vs control group
# [16] = system: P62 and LC3B in HBV transgenic mouse liver tissue; experiment: Autophagy markers in liver tissue, western blot; assay type: in vivo
# Method: The liver tissues of the mice with or without liver hepatocellular carcinoma in the example 7 were analyzed by western blot (FIG. 8A), and quantitative analysis was performed via Image J software (FIG. 8B). P62 protein accumulated in the cells when the autophagy was forbidden, and it was degraded when the autophagy started-up. Therefore, P62 protein may be a biomarker of autophagy. […] Moreover, LC3B protein is the subunit of the microtubule-related protein, which has different protein isomers. After the autophagy being started, LC3B I isomer will be transformed into LC3B II isomer. […] The results above indicate that PCH1152 may enhance autophagy, i.e. may inhibit abnormal “anti-autophagy” effect, thereby preventing the development of liver hepatocellular carcinoma. **p<0.01; ***p<0.001; unpaired t-test.
# [17] = system: liver hepatocellular carcinoma cell line with Nexavar drug resistance; experiment: Protein expression and apoptosis in drug-resistant cell line; assay type: cell-based
# From the text: WT: wild-type liver hepatocellular carcinoma cell line. R: Nexavar-drug resistance-liver hepatocellular carcinoma cell line.
# After treating liver hepatocellular carcinoma cell line with Nexavar drug resistance by PCH1130 or PCH1152, the expressions of molecules such as USP22, ABCC1, ABCC2 and Twist in liver hepatocellular carcinoma may be decreased, and the expressions of cleaved Caspase-8 and PARP may be increased, which induced the apoptosis of liver hepatocellular carcinoma cells.
# [18] = Safety test, median lethal dose (LD50), intravenous injection; assay type: in vivo; conditions: in vivo, mouse
# Method: (§2) The mouse xenograft model of liver hepatocellular carcinoma was administered with different concentrations of PCH1152 or P1130 via intravenous injection, and the median lethal dose (LD50) was calculated by the number of death and dosage.
# [19] = system: mouse xenograft model of liver hepatocellular carcinoma; experiment: as above; assay type: in vivo
# Method: as §2
# [20] = long-term treatment in drinking water
compound,measurement,setting,value
Oc1ccc(CCN=C=S)cc1 [PCH1152],GI50,"[1]; Homo sapiens, SNU-449, read-out: GI50, SNU-449 liver hepatocellular carcinoma cell line",890 nM
same,increase of the ability of inhibiting the growth of the liver hepatocellular carcinoma cell line,[1]; compared to natural isothiocyanate compounds BITC or PEITC,12 times
same,GI50,[2],1540 nM
same,expression levels of cleaved caspase 8 and cleaved PARP,[3],significantly increased
same,"expressions of ABCC2, Twist and Mcl-1",[4],inhibition
same,"expressions of ABCC2, Twist and Mcl-1",[5],inhibition
same,cell viability of liver hepatocellular carcinoma cell line,"[6]; MTS assay, SNU-449",substantially decreased
same,selectivity between liver hepatocellular carcinoma cell and normal liver cell,"[6]; SNU-449 vs THLE-2, MTS assay",better cell growth inhibition selectivity
same,effect on cell viability of human normal liver cell line,[7],not significant
same,apoptosis of liver hepatocellular carcinoma cell line,[8],promote apoptosis
same,"expressions of ABCC2, Mcl-1 and Twist",[8],inhibit the expressions
same,"apoptosis promotion and inhibition of ABCC2, Mcl-1, Twist in human normal liver cell line",[9],no such effect
same,death of mice during the experiment,[10]; 45 days,No mouse dead
same,effect on daily food intake,[10]; 45 days,did not have any significant effect
same,effect on mouse weight,[10]; 45 days,did not have any significant effect
same,value of ALT in the mouse,[10]; 45 days,decrease
same,subcutaneous tumor volume,"[10]; 45 days, vs control group",significantly smaller
same,"expressions of ABCC1, USP22 and Mcl-1 in subcutaneous tumor",[10]; western blot,significant lower
same,Antimycin A-induced ROS increasement,[11],significantly reduce
same,HBV-induced ROS increasement,[12],significantly reduce
same,reduction of the incidence rate of liver tumor,[13]; compared to control group,more than 30%
same,age at which serum ALT increased to over 150 U/L in 50% of the mice,[13]; control group 19.5-month old,21 month old
same,volume of the liver tumor,[13]; long-term treatment,significantly decrease
same,weight of the liver tumor,[13]; long-term treatment,significantly decrease
same,impact on daily food intake,[13]; [20],did not have any significant impact
same,impact on daily water intake,[13]; [20],did not have any significant impact
same,impact on weight,[13]; [20],did not have any significant impact
same,structural stability in the drinking water of the mice,[14],higher than 98%
same,region of the lipid accumulation in liver tissue,[15]; Oil Red,reduced significantly
same,region of fibrosis in liver tissue,[15]; Sirius Red,reduced significantly
same,effect on autophagy,[16]; liver tissue,significantly enhance autophagy
same,P62 protein in liver tissue (ratio of P62 and Hsc70),"[16]; treated mouse without carcinoma vs mouse developing carcinoma, western blot",significantly lower
same,ratio of LC3B II and LC3B I,"[16]; vs control group, western blot",higher
same,effect on drug resistance in liver hepatocellular carcinoma,[17],reversing the drug resistance
same,"expressions of USP22, ABCC1, ABCC2 and Twist",[17],decreased
same,expressions of cleaved Caspase-8 and PARP,[17],increased
same,LD50,[18],30 to 100 mg/kg
same,"toxicity relative to existing anticancer drug, e.g. Taxotere",[19],comparable

# — US20240139142A1, “METHOD FOR PREVENTING OR TREATING LIVER DISEASE” (priority 2022, published 2024)
